Data published in patent publication US4097597A, “Dibenzo[b,e][1,4]diazepines” (Abbott Laboratories, priority 1977, dated 1978).

Key:
[1] = tested on: brain level of homovanillic acid (HVA); assay: Effect of Drug Compounds on Brain Level of Homovanillic Acid (HVA); format: in vivo, male Long Evans rats; conditions: ratio to HVA level in control group (1.0); rat brain minus cerebella, 0.15 mmoles/kg i.p. standard dose, 2 or 3 hours; only ratios greater than 1.6 considered of practical significance
Experimental: In testing for the effectiveness of the present drug compounds on the brain level of homovanillic acid (HVA), the drugs were administered intraperitoneally to male Long Evans rats (Simonsen) usually as aqueous solutions but in certain cases as suspensions in 0.5% methocel in 0.9% saline. The standard testing dose was 0.15 mmoles/kg. body weight. The test and control groups consisted of 3-5 and 5 animals, respectively. The analyses were performed on brains (minus cerebella) removed 2 or 3 hours later. In the analysis, standard extraction and fluorimetric methods were used.
In the results, the level of brain HVA in each test group is expressed as a ratio to the level of HVA in an accompanying control group that was injected with either a 0.9% saline or a 0.5% solution of methocel. Even though ratios of […] 1.3 usually have statistical significance, only ratios greater than 1.6 are considered to be of practical significance for the pharmacological classification of drugs.

[2] = tested on: Methamphetamine induced hyperactivity; assay: Antagonism of Methamphetamine induced hyperactivity in rats; format: in vivo, Male Long-Evans black hooded rats; set-up: key: (+): potentiation of Methamphetamine; (-): antagonism of Methamphetamine; conditions: sign printed with oral ED50; rat, oral 5, 20 and 80 mg./kg.
Experimental: Male Long-Evans black hooded rats, weighing between 100 and 150 grams, were administered the test drugs at oral doses of 5, 20 and 80 mg./kg. 1 hour prior to the administration of Methamphetamine at an intraperitoneal dose of 1 mg./kg. Three animals were tested at each dose level. The rats were placed in individual activity chambers equipped with photocells (Lehigh Valley, Model 1497). Antagonism of Methamphetamine induced hyperactivity was recorded as digital counts received from the photocells at one and two hour intervals. Placebo controls received a volume dose of the 0.5 carboxymethylcellulose vehicle. The data were evaluated by a one-way analysis of variance computer program. ED50 's were calculated by the method of Litchfield and Wilcoxon (J. Pharmacol. Exp. Therap.; 96:99, 1949).
In the results, a (+) indicates a potentiation of Methamphetamine and a (-) is antagonism of Methamphetamine.

| SMILES | HVA Ratio [1] | direction of effect on Methamphetamine [2] |
| --- | --- | --- |
| CCCCCCCCCCCCCCCC(=O)OCCOCCN1CCN(C2=Nc3cc(Cl)ccc3Nc3ccccc32)CC1 [IX, 8-Chloro-11-[4-2-(2-palmitoyloxyethoxy)-ethylpiperazinyl]-5H-dibenzo[b,e][1,4]diazepine] | 1.0 | (-) |
| OCCOCCN1CCN(C2=Nc3cc(Cl)ccc3Nc3ccccc32)CC1 [VI, 8-Chloro-11-[4-2-(2-hydroxyethoxy)ethyl-1-piperazinyl]-5H-dibenzo[b,e][1,4]diazepine] | 2.8 | (-) |
| COCCOCCN1CCN(C2=Nc3cc(Cl)ccc3Nc3ccccc32)CC1 [VII, 8-Chloro-11[4-2-(2-methoxyethoxy)-ethylpiperazine]-5H-dibenzo[b,e][1,4]diazepine] | 3.1 | (-) |
| OCCOCCOCCN1CCN(C2=Nc3cc(Cl)ccc3Nc3ccccc32)CC1 [VIII, 8-Chloro-11-[4-2-(2-hydroxyethoxyethoxy)-ethylpiperazinyl]-5H-dibenzo[b,e][1,4]diazepine] | 1.4 | (-) |
| CCCCCCCCCCCCCCCC(=O)OCCOCCN1CCN(C2=Nc3cc(Cl)ccc3N(C(=O)CCCCCCCCCCCCCCC)c3ccccc32)CC1 [X, 8-Chloro-11-[4-2-(2-palmitoyloxyethoxy)-ethylpiperazinyl]-5-palmitoyl-dibenzo[b,e][1,4]diazepine] |  | (-) |
